In PMC5983644, “Expression and Interaction Analysis among Saffron ALDHs and Crocetin Dialdehyde” (International Journal of Molecular Sciences, 2018):

Biological target: T1, ALDH20158 (Crocus sativus, UniProt A0A3G1GZK3)
T1 sequence (A0A3G1GZK3 31-535): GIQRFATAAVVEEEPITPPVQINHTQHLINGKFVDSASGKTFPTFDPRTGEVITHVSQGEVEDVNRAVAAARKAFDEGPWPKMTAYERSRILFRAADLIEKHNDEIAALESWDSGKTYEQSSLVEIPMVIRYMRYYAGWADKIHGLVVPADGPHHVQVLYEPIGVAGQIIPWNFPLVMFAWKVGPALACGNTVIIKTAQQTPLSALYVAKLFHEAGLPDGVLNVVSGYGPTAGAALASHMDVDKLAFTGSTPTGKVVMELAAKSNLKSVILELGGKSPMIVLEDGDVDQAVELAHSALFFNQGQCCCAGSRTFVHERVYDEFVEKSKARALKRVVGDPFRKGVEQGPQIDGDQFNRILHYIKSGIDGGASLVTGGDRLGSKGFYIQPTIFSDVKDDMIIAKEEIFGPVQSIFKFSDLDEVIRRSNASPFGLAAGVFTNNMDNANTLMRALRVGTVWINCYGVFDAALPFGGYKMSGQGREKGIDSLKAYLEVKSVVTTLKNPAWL
Experiment: LC-APCI(+)-MS of crocetin formed by crude extract of E. coli expressing the enzyme
Assay type: biochemical
Settings: NAD+, pyrophosphate buffer, NaCl, pH 7.5, 28 C, 30 min; empty-vector extract as control

C\C(C=O)=C/C=C/C(C)=C/C=C/C=C(C)/C=C/C=C(\C)C=O [crocetin dialdehyde]
LC-APCI(+)-MS of crocetin formed by crude extract of E. coli expressing the enzy: the same results were obtained using ALDH20158 and ALDH3898
